Laboratory results reported in patent US12257290B2, “PIC1 inhibition of myeloperoxidase oxidative activity in an animal model” (priority 2018, dated 2025).
Ends that are not written are not given here.

Columns and labels:
Human neutrophil MPO = experiment: Purified MPO inflammatory peritonitis model (peritoneal wash TMB peroxidase activity, PicoGreen free DNA); type: in vivo, Wistar rats; settings: for MPO activity in peritoneal wash: P<0.019
Procedure: Human neutrophil MPO (Lee Biosolutions) was diluted in sterile saline to the respective doses necessary for each experiment. PIC1 in the form of PA-dPEG24 (PolyPeptide Group) was solubilized and diluted in 0.5 M Histidine buffer, adjusted to pH 6.5, and then diluted to each of the respective doses used for each experiment.
Wistar rats were sedated and injected IP with purified MPO in experiments that were conducted under an Eastern Virginia Medical School IRB approved protocol (#17-008). 16-week-old male Wistar rats were used in these experiments weighing approximately 200 g. The rats received sedation with ketamine and acepromazine prior to all procedures. They then received a 1 ml IP injection with MPO in saline. After the time interval indicated, a tail vein phlebotomy was performed to obtain 250 mcl of blood in a K2EDTA Microtainer (BD). The animals were then euthanized with FatalPlus IV. A peritoneal wash with 20 ml of ice cold PBS was then performed by […] followed by massage and extraction from a small hole in the peritoneum with a blunt needle and syringe.
Cells were sedimented and supernatants were tested for MPO peroxidation of TMB, with sample processing performed as follows. Peritoneal wash fluid was centrifuged at 1500×g for 5 minutes to sediment cells and other debris. The resulting peritoneal wash fluid supernatant was aliquoted and frozen for further analysis. The cell pellet was resuspended to the original volume with saline and cells were counted on a hemocytometer. Plasma was collected after centrifugation of the lavender top blood collection tubes.
The MPO activity assay was performed as follows. Peritoneal fluid, along with pure MPO for a standard curve, was serially titrated in 0.1 ml in a 96 well plate followed by the addition of 0.1 ml of 3,3′,5,5′-tetramethylbenzidine (TMB) (Fisher). After one minute, 0.1 ml of 2.5 M H2SO4 was added to stop the reaction and the plate was read at 450 nm. Using linear regression from the standard curve, the MPO activity was calculated for each sample.
In the peritoneal wash fluid supernatants, free DNA was measured as a marker of NETosis via the PicoGreen assay. Peritoneal fluid or plasma, along with DNA (Invitrogen) for a standard curve, was serially titrated in 0.1 ml in a 96 well plate and used in the Quant-iT PicoGreen (Fisher) assay. The PicoGreen solution was diluted as directed by the kit instructions and added to samples, which were incubated in the dark for 10 minutes and then read on a fluorescent microplate reader at excitation 480 nm/emission 520 nm). Using linear regression from the standard curve, the DNA concentration was quantitated for each sample.
The effect of PIC1, in particular PA-dPEG24, on the inhibition of MPO and NETosis in MPO-mediated peritonitis was then assayed. A series of increasing doses of PA-dPEG24 (1 mg, 5 mg, and 20 mg) were injected IP immediately, i.e., one minute after purified MPO was inoculated, into the peritoneum followed 2 hours later by phlebotomy, euthanasia and peritoneal wash. A control was used where no PA-dPEG24 was administered. An MPO activity assay and a free DNA assay according to the methods discussed above were conducted for each of 0 mg, 1 mg, 5 mg, and 20 mg PA-dPEG24 doses.

human neutrophils = experiment: PMA-initiated NET formation by human neutrophils (fluorescence microscopy, PicoGreen free DNA); type: cell-based; settings: 5 mM PA-dPEG24, PMA + hydrogen peroxide
Procedure: Neutrophils from the blood of healthy volunteers were purified from heparinized blood by Hypaque-Ficoll step gradient centrifugation, dextran sedimentation, and hypotonic lysis, as previously described.
A Neutrophil Extracellular Trap assay was performed in a microtiter plate as follows. The formation of NETs was induced by incubating 2.0×10^5 neutrophils in a 96 well tissue culture plates with RPMI media alone, or adding 0.05% of H2O2, or 12 nM PMA, or 8 μg/ml MPO, or PA-dPEG24 at various concentrations. For immune complex sera induced NET formation, activated sera was made by adding 5 μl of ovalbumin-anti-ovalbumin immune complex to 5% NHS in 0.3 ml of GVBS^++. This combination was allowed to incubate for 30 minutes at 37° C., and then 0.05 ml was added to the neutrophils in RPMI. Cells were then incubated for 1.5 hours at 37° C. in 5% CO2 incubator.
NET formation was quantitatively assayed as follows. Free DNA was measured by PicoGreen in the supernatant recovered from the NET microtiter plate well assay. Five hundred units of […] (Fisher) were added to each well to allow for digestion of released extracellular DNA for 10 minutes in 37° C. incubator. […] The fluorescence was then quantified on a BioTek microplate reader at Excitation 485 nm/Emission 528 nm.
NET formation was assayed by fluorescence microscopy. […]

IALILEPICCQERAA-dPEG24 (cysteine pairing not given here) [PA-dPEG24, 15-amino acid PEGylated peptide, 24 PEG moieties at the C-terminus]
MPO activity in peritoneal wash (Human neutrophil MPO; 1 mg (5 mg/kg) IP, 2 h): Statistically significant decreases | MPO activity in peritoneal wash (Human neutrophil MPO; 5 mg (25 mg/kg) IP, 2 h): Statistically significant decreases | free DNA in the peritoneal fluid (PicoGreen) (Human neutrophil MPO; 20 mg (100 mg/kg) IP, 2 h, P=0.11): trend towards decreased free DNA | decrease in peroxidase activity by TMB in peritoneal wash (Human neutrophil MPO; 20 mg (100 mg/kg) IP, 2 h, vs no PA-dPEG24, P=0.015): 5 fold | free DNA in blood plasma (PicoGreen) (Human neutrophil MPO; highest dose, P=0.22 vs no PIC1): lowest with the highest dose | NETs identified by fluorescence microscopy (human neutrophils): did not generate NETs | inhibition of free DNA elaboration (PicoGreen) (human neutrophils; vs no inhibitor, P=0.01): 2.6 fold
